Measured values taken from US20060183716A1, “2-Methylene-19-nor-(20S-24S)-1alpha,25-dihydroxyvitamin D2” (Wisconsin Alumni Research Foundation, priority 2005, published 2006).

How the values were obtained:
[1] = test system: calcemic activity; settings: as described in the '352, '861 and '622 patents; cited from earlier work
[2] = test system: cell differentiation; settings: as described in the '352, '861 and '622 patents; cited from earlier work
[3] = target: T1, vitamin D receptors (Homo sapiens, UniProt P11473); settings: as described in the '352, '861 and '622 patents; cited from earlier work
T1 sequence (P11473 1-427): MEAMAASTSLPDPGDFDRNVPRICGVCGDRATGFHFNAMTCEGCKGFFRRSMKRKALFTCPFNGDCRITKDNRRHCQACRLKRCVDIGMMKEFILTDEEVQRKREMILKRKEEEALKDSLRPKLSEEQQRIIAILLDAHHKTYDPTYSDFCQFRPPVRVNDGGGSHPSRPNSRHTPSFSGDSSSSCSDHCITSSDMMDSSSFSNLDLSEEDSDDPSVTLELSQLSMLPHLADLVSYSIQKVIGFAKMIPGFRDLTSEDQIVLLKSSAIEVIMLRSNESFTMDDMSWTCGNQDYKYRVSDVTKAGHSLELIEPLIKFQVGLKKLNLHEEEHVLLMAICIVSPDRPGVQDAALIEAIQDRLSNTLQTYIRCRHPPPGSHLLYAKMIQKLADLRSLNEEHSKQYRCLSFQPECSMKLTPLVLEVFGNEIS

[4] = target: T2, full-length recombinant rat vitamin D receptor (Rattus norvegicus, UniProt P13053); test: Vitamin D receptor competitive binding with [3H]-1,25-(OH)2-D3; settings: competition with [3H]-1,25-(OH)2-D3; compared with 1,25(OH)2D3; FIG. 1
T2 construct: Full-length recombinant rat receptor was expressed in E. coli BL21(DE3) Codon Plus RIL cells; histidine tag (C); made in house; host or cells: E. coli BL21(DE3) Codon Plus RIL
T2 sequence (P13053 1-423): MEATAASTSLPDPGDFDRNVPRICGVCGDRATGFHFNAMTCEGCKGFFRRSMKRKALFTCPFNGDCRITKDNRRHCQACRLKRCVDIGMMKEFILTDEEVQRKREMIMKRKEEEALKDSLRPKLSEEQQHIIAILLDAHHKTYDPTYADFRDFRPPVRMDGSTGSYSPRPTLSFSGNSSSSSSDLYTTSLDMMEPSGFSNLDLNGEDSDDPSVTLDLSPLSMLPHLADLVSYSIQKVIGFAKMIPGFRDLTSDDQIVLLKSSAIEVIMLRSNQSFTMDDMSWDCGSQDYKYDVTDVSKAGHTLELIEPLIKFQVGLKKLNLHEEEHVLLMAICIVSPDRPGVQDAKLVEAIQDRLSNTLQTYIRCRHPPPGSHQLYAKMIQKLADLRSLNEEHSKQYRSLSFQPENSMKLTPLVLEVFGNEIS
Source text: FIG. 1 is a graph comparing the relative activity of (20S/24S) 2-MD2 and 1,25(OH)2D3 to compete for binding with [^3H]-1,25-(OH)2-D3 to the full-length recombinant rat vitamin D receptor.
Full-length recombinant rat receptor was expressed in E. coli BL21(DE3) Codon Plus RIL cells and purified to homogeneity using two different column chromatography systems. The first system was a nickel affinity resin that utilizes the C-terminal histidine tag on this protein. The protein that was eluted from this resin was further purified using ion exchange chromatography (S-Sepharose Fast Flow). Aliquots of the purified protein were quick frozen in liquid nitrogen and stored at −80° C. until use. For use in binding assays, the protein was diluted in TEDK50 (50 mM Tris, 1.5 mM EDTA, pH 7.4, 5 mM DTT, 150 mM KCl) with 0.1% Chaps detergent. […]
Unlabeled ligands were dissolved in ethanol and the concentrations determined using UV spectrophotometry (1,25(OH)2D3:molar extinction coefficient=18,200 and λmax=265 nm; Analogs: molar extinction coefficient=42,000 and λmax=252 nm). […]
Radiolabeled and unlabeled ligands were added to 100 mcl of the diluted protein at a final ethanol concentration of ≦10%, mixed and incubated overnight on ice to reach binding equilibrium. […] Total binding was determined from the tubes containing only radiolabeled ligand.

[5] = test system: Human promyelocytic leukemia (HL60) cells; test: HL-60 cell differentiation (nitro blue tetrazolium reduction); format: cell-based; settings: compared with 1,25(OH)2D3; four days; FIG. 2
Experimental: FIG. 2 is a graph comparing the percent HL-60 cell differentiation as a function of the concentration of (20S/24S) 2-MD2 with that of 1,25(OH)2D3.
The study drugs were dissolved in ethanol and the concentrations determined using UV spectrophotometry. Serial dilutions were prepared so that a range of drug concentrations could be tested without changing the final concentration of ethanol (≦0.2%) present in the cell cultures.
Human promyelocytic leukemia (HL60) cells were grown in RPMI-1640 medium containing 10% fetal bovine serum. The cells were incubated at 37° C. in the presence of 5% CO2.
HL60 cells were plated at 1.2×10^5 cells/ml. Eighteen hours after plating, cells in duplicate were treated with drug. Four days later, the cells were harvested and a nitro blue tetrazolium reduction assay was performed (Collins et al., 1979; J. Exp. Med. 149:969-974). The percentage of differentiated cells was determined by counting a total of 200 cells and recording the number that contained intracellular black-blue formazan deposits. Verification of differentiation to monocytic cells was determined by measuring phagocytic activity (data not shown).

[6] = test system: 24-hydroxylase (24Ohase) gene promoter in ROS 17/2.8 (bone) cells; test: In vitro transcription assay (24-hydroxylase promoter luciferase reporter); format: cell-based; settings: ROS 17/2.8 cells, sixteen hours after dosing, FIG. 3
Experimental: FIG. 3 is a graph comparing the in vitro transcription activity of (20S/24S) 2-MD2 with that of 1,25(OH)2D3.
Transcription activity was, measured in ROS 17/2.8 (bone) cells that were stably transfected with a 24-hydroxylase (24Ohase) gene promoter upstream of a luciferase reporter gene (Arbour et al., 1998). Cells were given a range of doses. Sixteen hours after dosing the cells were harvested and luciferase activities were measured using a luminometer. RLU=relative luciferase units.

[7] = test system: bone calcium mobilization; test: Bone calcium mobilization (serum calcium); format: in vivo, Sprague-Dawley rats; settings: rats on 0.02% Ca diet, four consecutive ip doses; compared with 1,25(OH)2D3; FIG. 4
Source text: (§1) FIG. 4 is a bar graph comparing the bone calcium mobilization activity of (20S/24S) 2-MD2 with that of 1,25(OH)2D3. Male, weanling Sprague-Dawley rats were placed on Diet 11 (0.47% Ca) diet +AEK for one week followed by Diet 11 (0.02% Ca) +AEK for 3 weeks. The rats were then switched to a diet containing 0.47% Ca for one week followed by two weeks on a diet containing 0.02% Ca. Dose administration began during the last week on 0.02% calcium diet. Four consecutive ip doses were given approximately 24 hours apart. Twenty-four hours after the last dose, blood was collected from the severed neck and the concentration of serum calcium determined as a measure of bone calcium mobilization. The first 10 cm of the intestine was also collected for intestinal calcium transport analysis using the everted gut sac method.

[8] = test system: intestinal calcium transport; test: Intestinal calcium transport (everted gut sac method); format: in vivo, Sprague-Dawley rats; settings: rats on 0.02% Ca diet, four consecutive ip doses, FIG. 5
Source text: as §1, with “FIG. 5 is a” for “FIG. 4 is a”, “comparing the intestinal calcium transport” for “comparing the bone calcium mobilization”, “intestinal calcium transport activity of” for “bone calcium mobilization activity of”

| binding to the vitamin D receptor relative to native hormone [4] | Compound | calcemic activity as compared to 1α,25-dihydroxyvitamin D3 [1] | cell differentiation activity [2] | binding activity to vitamin D receptors [3] | inducing differentiation of HL-60 cells relative to native hormone [5] | causing transcription relative to 1,25-(OH)2D3 [6] | bone calcium mobilizing activity [7] | intestinal calcium transport [8] |
| --- | --- | --- | --- | --- | --- | --- | --- | --- |
|  | 1α-hydroxy-2-methylene-19-nor-(20S)-homopregnacalciferol | little if any | relatively high | relatively high |  |  |  |  |
|  | 1α-hydroxy-2-methylene-19-nor-bishomopregnacalciferol | little if any | relatively high | relatively high |  |  |  |  |
| almost equal to the native hormone | C=C1[C@H](O)CC(=C/C=C2\CCC[C@]3(C)C([C@@H](C)/C=C/[C@H](C)C(C)(C)O)CC[C@@H]23)C[C@H]1O (stereo in doubt) [2-methylene-19-nor-(20S-24S)-1α,25-dihydroxyvitamin D2] |  |  |  | almost equal to the native hormone | slightly more effective than 1,25-(OH)2D3 | comparable to 1,25(OH)2D3 | does retain some ability to elevate intestinal calcium transport |
|  | C=C1[C@H](O)CC(=C/C=C2\CCC[C@]3(C)[C@@H](CC)CC[C@@H]23)C[C@H]1O [1α-Hydroxy-2-methylene-19-nor-pregnacalciferol] | little if any | relatively high | relatively high |  |  |  |  |
